Reference: ChEMBL document CHEMBL3045642, “Synthesis of biologically active drimanes and homodrimanes from ()-sclareol” (Tetrahedron, 1995)
Values after ≈ are worked out from the molar mass of the structure shown.

What was measured:
Staphylococcus aureus = assay: Antibacterial activity against Staphylococcus aureus ATCC 8 after 24 hr; format: functional; conditions: ATCC 8, 24 h
Enterococcus faecalis = assay: Antibacterial activity against Enterococcus faecalis OGIX after 24 hr; format: functional
Spodoptera littoralis [1] = assay: Antifeedant activity against Spodoptera littoralis at 10 ppm; format: functional
SK-MEL-28 = assay: Cytotoxicity against Homo sapiens (human) SK-MEL-28 cells; format: functional, cell-based
Spodoptera littoralis [2] = assay: Antifeedant activity against Spodoptera littoralis at 100 ppm; format: functional
Candida albicans = assay: Antifungal activity against Candida albicans CECT 1394 after 48 hr; format: functional; conditions: CECT 1394, 48 h
Pseudomonas aeruginosa = assay: Antibacterial activity against Pseudomonas aeruginosa after 24 hr; format: functional
Saccharomyces cerevisiae = assay: Antifungal activity against Saccharomyces cerevisiae S3 after 48 hr; format: functional; conditions: S3, 48 h
Bacillus subtilis = assay: Antibacterial activity against Bacillus subtilis CECT 397 after 24 hr; format: functional; conditions: CECT 397, 24 h
Proteus = assay: Antibacterial activity against Proteus after 24 hr; format: functional
Salmonella typhimurium = assay: Antibacterial activity against Salmonella enterica subsp. enterica serovar Typhimurium after 24 hr; format: functional
Cryptococcus neoformans = assay: Antifungal activity against Cryptococcus neoformans CECT 1075 after 48 hr; format: functional; conditions: CECT 1075, 48 h
A549 = assay: Cytotoxicity against Homo sapiens (human) A549 cells; format: functional, cell-based
HT-29 = assay: Cytotoxicity against Homo sapiens (human) HT-29 cells; format: functional, cell-based
P388 = assay: Cytotoxicity against […] cells; format: functional, cell-based; conditions: Mus musculus
Spodoptera littoralis [3] = assay: Antifeedant activity against Spodoptera littoralis; format: functional, organism-based

| SMILES | MIC (Staphylococcus aureus) [µg/mL] | MIC (Enterococcus faecalis) [µg/mL] | AFI (Spodoptera littoralis [1]) [%] | IC50 (SK-MEL-28) [µg/mL] | AFI (Spodoptera littoralis [2]) [%] | MIC (Candida albicans) [µg/mL] | MIC (Pseudomonas aeruginosa) [µg/mL] | MIC (Saccharomyces cerevisiae) [µg/mL] | MIC (Bacillus subtilis) [µg/mL] | MIC (Proteus) [µg/mL] | MIC (Salmonella typhimurium) [µg/mL] | MIC (Cryptococcus neoformans) [µg/mL] | IC50 (A549) [µg/mL] | IC50 (HT-29) [µg/mL] | IC50 (P388) [µg/mL] | Activity (Spodoptera littoralis [3]) |
| --- | --- | --- | --- | --- | --- | --- | --- | --- | --- | --- | --- | --- | --- | --- | --- | --- |
| CC1(C)CCC[C@]2(C)[C@@H](C=O)C(C=O)=CC[C@@H]12 [POLYGODIAL] | > 100 | > 100 | 24.9 | 2.5 (≈ 10.7 µM) | 7.4 | > 100 | > 100 | 100 (≈ 427 µM) | > 100 | > 100 | > 100 | > 100 |  |  |  |  |
| CC1(C)CCC[C@]2(C)[C@@H](CC=O)C(C=O)=CC[C@@H]12 | 100 (≈ 403 µM) | > 100 | -17.9 | 5 (≈ 20.1 µM) | 51.7 | > 100 | 100 (≈ 403 µM) | 100 (≈ 403 µM) | 100 (≈ 403 µM) | > 100 | > 100 | > 100 | 2.5 (≈ 10.1 µM) | 5 (≈ 20.1 µM) | 2.5 (≈ 10.1 µM) | Dose-dependent effect |
| C=C1C(=O)C[C@H]2C(C)(C)CCC[C@]2(C)[C@H]1C=O |  |  | 40.2 |  | 18.5 |  |  |  |  |  |  |  |  |  |  |  |
| C=C1C(=O)C[C@H]2C(C)(C)CCC[C@]2(C)[C@H]1CC=O | > 100 | > 100 | -10 | 2.5 (≈ 10.1 µM) | 43.7 | > 100 | 100 (≈ 403 µM) | > 100 | > 100 | > 100 | > 100 | > 100 | 1.2 (≈ 4.83 µM) | 2.5 (≈ 10.1 µM) | 1.2 (≈ 4.83 µM) | Dose-dependent effect |
